Measurements from patent publication US20040106671A1, “Remedies for vesical hyperesthesia” (priority 2001, published 2004).

What was measured:
[1] = tested on: Hypersensitivity of Bladder with Cystitis; assay: Inhibitory activity on hypersensitivity of bladder with cystitis (cystometry, xylene-induced cystitis); assay type: in vivo, Male SD rats; settings: oral, rats with xylene-induced cystitis; for pre-micturition contractions (amplitude, relative value, value before administration defined as 100): 0.05 mg/mL suspension at 2 mL/kg, average ± standard error, n = 13
Method: The experiment was carried out by referring to the method of Morikawa, et al. [Jpn. J. Pharmacol., Vol. 52, pp. 587-595 (1990)]. Male SD rats weighing from 250 to 400 g (supplied by Japan SLC) were used in the test. Five to seven animals of these rats were put in each metal cage and reared by allowing them to freely take commercially available chow and water, in an animal room at room temperature between 19 and 25° C. and humidity between […] and 70% under illumination for 12 hours (from 7:00 a.m. to 7:00 p.m.) per day. The rats were subjected to bladder catheterization. Under anesthesia with pentobarbital sodium, the bladder was exposed by midline incision of the abdomen. […] The bladder catheter was fixed with a surgical silk ligature and indwelled. The other end of the catheter was exposed subcutaneously from the back of the neck, plugged and then fixed to the skin with a surgical thread. Two to three days after the bladder catheterization, a cystometry test was performed. The rats were put in a Bollman cage (Natsume Seisakusho Co., Ltd.) and a three-way cock was connected to the bladder catheter, one end of the cock was connected to a pressure transducer (Nihon Kohden Corp.) and the other end was connected to a 50-mL syringe (Terumo Corp.) arranged to an infusion pump (Harvard Apparatus, Inc.) for physiological saline infusion. The intravesical pressure signal from the pressure transducer was amplified with a strain pressure amplifier (AP-601G, Nihon Kohden Corp.) connected thereto, and was recorded on a thermal array recorder (RTA-1200, Nihon Kohden Corp.) via a polygraph system (RMP-6008, Nihon Kohden Corp.) containing the above amplifier. After the completion of the preparation for the measurement, a room temperature physiological saline was continuously infused into the bladder at a flow rate of 3 mL/h, and the intravesical pressure was measured to observe micturition intervals. After the micturition intervals became constant, the intravesical pressure waveform was recorded for one hour. Then, saline infusion was stopped, and 0.5 mL of xylene (Wako Pure Chemical Industries, Ltd.) was infused into the bladder through the catheter and was removed about 10 seconds later to cause cystitis. After 30 minutes, the continuous infusion of saline was started again and the intravesical pressure was monitored for about one hour to obtain the value before dosing. The test compound was suspended in a 0.5 w/v % aqueous solution of methylcellulose at a concentration of 0.05 mg/mL. The suspension or a vehicle was orally administered to the animals at a volume of 2 mL/kg. After the administration of the test compound, the intravesical pressure waveform was recorded for 4.5 hours. […] Pre-micturition contraction was measured as an index of bladder hypersensitivity. The values of pre-micturition contractions were read from the intravesical pressure waveform recorded on a chart paper using a digitizer (KD3220, Graphtec Corporation) controlled by a computer (PC-9801NS/R, NEC), and saved as a WJ2 file on Lotus 1-2-3 R2.5J (Lotus). […] The amplitude of pre-micturition contractions was expressed as a relative value when the value before the drug administration that was defined as 100, and the average ±standard error was calculated for each group.

dd male mice = assay: Acute toxicity test; assay type: in vivo; settings: oral administration, mortality on the seventh day after the administration
Method: The test compound was administered orally or intraperitoneally to 3 animals per group of dd male mice (body weight: 20±1 g). The minimum lethal dose (MLD) value was obtained by observing mortality on the seventh day after the administration.

C[C@](O)(C(=O)Nc1cccc2c1C(=O)c1sccc1CS2(=O)=O)C(F)(F)F [Compound 1, (S)-(+)-N-(5,5-dioxido-10-oxo-4,10-dihydrothieno[3,2-c][1]benzothiepin-9-yl)-3,3,3-trifluoro-2-hydroxy-2-methylpropanamide]
pre-micturition contractions (amplitude, relative value, value before administration defined as 100) ([1]; After 1 hour): 71.5 ± 6.5% | pre-micturition contractions (amplitude, relative value, value before administration defined as 100) ([1]; After 2 hours): 64.7 ± 6.8 % | pre-micturition contractions (amplitude, relative value, value before administration defined as 100) ([1]; After 3 hours): 61.7 ± 6.8 % | pre-micturition contractions (amplitude, relative value, value before administration defined as 100) ([1]; After 4 hours): 61.6 ± 5.4 % | effect on pre-micturition contractions (in words) ([1]; Test Example 1): inhibited pre-micturition contractions | minimum lethal dose (MLD) (dd male mice): > 1000 mg/kg
